Here are results for one compound from publication PMC8023582 (ACS Chemical Biology, 2021).

This assay concerns the target T1, RORα (Homo sapiens, UniProt P35398).
T1 sequence (P35398 272-510 limits assumed): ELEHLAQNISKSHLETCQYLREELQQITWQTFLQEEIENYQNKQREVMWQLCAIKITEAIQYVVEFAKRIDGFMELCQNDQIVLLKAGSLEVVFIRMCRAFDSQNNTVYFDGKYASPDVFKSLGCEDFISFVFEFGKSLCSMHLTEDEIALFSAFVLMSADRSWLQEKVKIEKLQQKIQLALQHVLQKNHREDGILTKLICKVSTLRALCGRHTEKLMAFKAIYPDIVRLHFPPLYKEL
The assay is described as follows: TR-FRET coactivator recruitment assay on RORα. It counts as biochemical. As to conditions: read-out: RORα: cofactor recruitment IC50; Figure 3B. In general terms: TR-FRET usually uses a lanthanide donor and a delayed reading to cut background.

What is called IC50 is the concentration at which inhibition is half-maximal. As to `CC(C)CCC[C@@H](C)[C@H]1CC[C@H]2[C@@H]3CC=C4C[C@@H](OS(=O)(=O)O)CC[C@]4(C)[C@H]3CC[C@]12C` [Chol-SO4, sulfated cholesterol], the IC50 turned out to be 190 ± 50 nM.
